Active and inactive are the calls of the source. The calls are words filed in the database; no cut-off is given here.
Experiments:
[1] = tested on: Trypanosoma brucei brucei; experiment: Anti-parasitic activity against bloodstream trypomastigote stage of wild-type Trypanosoma brucei brucei Lister 427 after 48 hrs by alamar blue based fluorescence assay; type: functional; conditions: Lister 427, 48 h
[2] = tested on: Trypanosoma brucei brucei; experiment: Anti-parasitic activity against diminazene, pentamidine and melaminophenyl arsenical-resistant bloodstream trypomastigote stage of Trypanosoma brucei brucei B48 harboring TbAT1 deletion mutant after 48 hrs by alamar blue based fluorescence assay; type: functional; conditions: B48, 48 h
Trypanosoma congolense = experiment: Anti-parasitic activity against bloodstream form of Trypanosoma congolense IL3000 after 48 hrs by alamar blue based fluorescence assay; type: functional; conditions: IL3000, 48 h
[3] = tested on: Trypanosoma brucei brucei; experiment: Trypanocidal activity against bloodstream trypomastigote stage of wild-type Trypanosoma brucei brucei Lister 427 assessed as inhibition of respiration in presence of glycerol; type: functional
[4] = tested on: Trypanosoma brucei brucei; experiment: Resistant factor, ratio of EC50 for bloodstream trypomastigote stage of wild-type Trypanosoma brucei brucei Lister 427 assessed as inhibition of respiration in presence of glycerol to EC50 for bloodstream trypomastigote stage of wild-type Trypanosoma brucei brucei Lister 427 assessed as inhibition of respiration in absence of glycerol; type: functional
[5] = tested on: Trypanosoma brucei brucei; experiment: Induction of mitochondrial membrane hyperpolarization in bloodstream trypomastigote stage of wild-type Trypanosoma brucei brucei Lister 427 at 10 uM after 10 mins by TMRE dye based flow cytometry; type: functional
[6] = Inhibition of recombinant MTS-deficient N-terminal His6-tagged and SUMO-tagged Trypanosoma alternative oxidase expressed in Escherichia coli FN102 using ubiquinol-1 as substrate
[7] = Cytotoxicity against HFF cells after 30 hrs by resazurin based fluorimetric assay; type: cell-based; conditions: human
[8] = Selectivity index, ratio of CC50 for HFF cells to EC50 for bloodstream trypomastigote stage of wild-type Trypanosoma brucei brucei Lister 427; type: toxicity; conditions: human, read-out: Ratio CC50/EC50
[9] = Selectivity index, ratio of CC50 for HFF cells to EC50 for bloodstream form of Trypanosoma congolense IL3000; type: toxicity; conditions: human, read-out: Ratio CC50/EC50
[10] = Resistance factor, ratio of EC50 for diminazene, pentamidine and melaminophenyl arsenical-resistant bloodstream trypomastigote stage of Trypanosoma brucei brucei B48 harboring TbAT1 deletion mutant to EC50 for bloodstream trypomastigote stage of wild-type Trypanosoma brucei brucei Lister 427; type: functional
[11] = Cytostatic activity against HEK293T cells after 30 hrs by resazurin based fluorimetric assay; type: cell-based, HEK-293T; conditions: human
[12] = Cytotoxicity against HEK cells up to 50 uM after 30 hrs by resazurin based fluorimetric assay; type: cell-based; conditions: human
[13] = Selectivity index, ratio of CC50 for HEK293T cells to EC50 for bloodstream trypomastigote stage of wild-type Trypanosoma brucei brucei Lister 427; type: toxicity; conditions: human, read-out: Ratio CC50/EC50
[14] = tested on: Trypanosoma brucei brucei; experiment: Reduction in oxygen consumption in bloodstream trypomastigote stage of wild-type Trypanosoma brucei brucei Lister 427 measured immediately for 120 mins by fluorescent oxygen reporter probe based fluorimetric assay; type: functional
[15] = tested on: Trypanosoma brucei brucei; experiment: Reduction in oxygen consumption in bloodstream trypomastigote stage of wild-type Trypanosoma brucei brucei Lister 427 at 50 uM measured immediately for 120 mins by fluorescent oxygen reporter probe based fluorimetric assay; type: functional
[16] = tested on: Trypanosoma brucei brucei; experiment: Anti-parasitic activity against bloodstream trypomastigote stage of Trypanosoma brucei brucei Lister 427 over-expressing TAO relative to bloodstream trypomastigote stage of wild-type Trypanosoma brucei brucei Lister 427; type: functional
[17] = tested on: Trypanosoma brucei brucei; experiment: Induction of mitochondrial membrane depolarization in bloodstream trypomastigote stage of wild-type Trypanosoma brucei brucei Lister 427 at 0.005 uM after 10 mins by TMRE dye based flow cytometry; type: functional
[18] = tested on: Trypanosoma brucei brucei; experiment: Induction of plasma membrane disruption in bloodstream trypomastigote stage of wild-type Trypanosoma brucei brucei Lister 427 assessed as increase in propidium iodide influx after 6 hrs by fluorimetric assay; type: functional
[19] = tested on: Trypanosoma brucei brucei; experiment: Trypanocidal activity against bloodstream trypomastigote stage of wild-type Trypanosoma brucei brucei Lister 427 at 3 times EC50 after 4 hrs by propidium iodide staining based fluorimetric assay; type: functional
[20] = tested on: Trypanosoma brucei brucei; experiment: Cell cycle arrest in bloodstream trypomastigote stage of wild-type Trypanosoma brucei brucei Lister 427 assessed as accumulation at G1 phase at 0.005 uM after 24 hrs by propidium iodide staining-based flow cytometry; type: functional
[21] = tested on: Trypanosoma brucei brucei; experiment: Cell cycle arrest in bloodstream trypomastigote stage of wild-type Trypanosoma brucei brucei Lister 427 assessed as accumulation at S phase at 0.005 uM after 24 hrs by propidium iodide staining-based flow cytometry; type: functional
[22] = tested on: Trypanosoma brucei brucei; experiment: Cell cycle arrest in bloodstream trypomastigote stage of wild-type Trypanosoma brucei brucei Lister 427 assessed as accumulation at G2 phase at 0.005 uM after 24 hrs by propidium iodide staining-based flow cytometry; type: functional
[23] = Selectivity index, ratio of CC50 for HEK293T cells to EC50 for bloodstream form of Trypanosoma congolense IL3000; type: toxicity; conditions: human, read-out: Ratio CC50/EC50
[24] = tested on: Trypanosoma brucei brucei; experiment: Induction of mitochondrial membrane depolarization in bloodstream trypomastigote stage of wild-type Trypanosoma brucei brucei Lister 427 at 100 nM after 10 mins by TMRE dye based flow cytometry; type: functional
[25] = tested on: Trypanosoma brucei brucei; experiment: Trypanocidal activity against bloodstream trypomastigote stage of wild-type Trypanosoma brucei brucei Lister 427 assessed as inhibition of respiration at 10 uM in presence of glycerol; type: functional
[26] = tested on: Trypanosoma brucei brucei; experiment: Trypanocidal activity against bloodstream trypomastigote stage of wild-type Trypanosoma brucei brucei Lister 427 assessed as inhibition of respiration at 10 uM; type: functional

| Compound | EC50 [1] | EC50 [2] | EC50 (Trypanosoma congolense) | EC50 [3] | Ratio EC50 [4] | Ratio EC50 [10] | CC50 at 30 h [11] | Activity [12] | selectivity ratio [13] | selectivity ratio [23] | also measured |
| --- | --- | --- | --- | --- | --- | --- | --- | --- | --- | --- | --- |
| N=C(N)c1ccc(/N=N/Nc2ccc(C(=N)N)cc2)cc1 [DIMINAZENE] | 65 nM | 780 nM | 151 nM | 63 nM | 0.97 | – | – | – | – | – | – |
| Cc1c(C)c2c(c(C)c1O)CCC(C)(COc1ccc(CC3SC(=O)NC3=O)cc1)O2 (stereo not given) | – | – | – | – | – | – | – | – | – | – | Activity [5]: Active |
| O=C(O)c1ccc(O)cc1O [2,4-DIHYDROXYBENZOIC ACID] | 17100 nM | – | – | 19000 nM | 1.11 | – | – | – | – | – | IC50 [6]: 116 µM |
| O=C(OCCCCCCCCCCCCCCCC[P+](c1ccccc1)(c1ccccc1)c1ccccc1)c1ccc(O)cc1O.[Br-] | 9 nM | 8 nM | 122 nM | 5 nM | 0.6 | 0.91 | – | – | – | – | CC50 at 30 h [7]: 249 µM; selectivity ratio [8]: 27700; selectivity ratio [9]: 2040; IC50 [6]: > 5 µM |
| O=C(NO)c1ccc(OCCCCCCCCCC[P+](c2ccccc2)(c2ccccc2)c2ccccc2)cc1O.[Br-] | 200 nM | – | – | – | – | – | > 400 µM | Non-Toxic | > 2040 | – | – |
| O=COCCCCCCCCCCOC(=O)c1ccc(O)cc1O | 31800 nM | 22100 nM | > 100000 nM | – | – | 0.69 | > 400 µM | Non-Toxic | > 12 | – | – |
| O=C(NO)c1ccccc1O [SALICYLHYDROXAMIC ACID] | 38700 nM | – | – | 7000 nM | – | – | – | – | – | – | Activity [14]: Dose-dependent effect; Activity [15]: Active; fold change (FC) [16]: 1.6 |
| O=C(OCCCCCCCCCCCCCC[P+](c1ccccc1)(c1ccccc1)c1ccccc1)c1ccc(O)cc1O.[Br-] | 1.5 nM | 1.2 nM | 61 nM | 0.8 nM | 0.55 | 0.78 | – | – | – | – | Activity [14]: Dose-dependent effect; Activity [17]: Active; CC50 at 30 h [7]: 59.7 µM; selectivity ratio [8]: 23400; selectivity ratio [9]: 982; Activity [18]: Dose-dependent effect; Activity [19]: Active; Activity [20]: Active; Activity [21]: Active; Activity [22]: Active; IC50 [6]: 1.46 µM; fold change (FC) [16]: 2.6 |
| O=C(NO)c1ccc(OCCCCCCCCCCCC[P+](c2ccccc2)(c2ccccc2)c2ccccc2)cc1O.[Br-] | 140 nM | – | 46400 nM | 158 nM | 1.13 | – | > 400 µM | Non-Toxic | > 2860 | > 8.6 | – |
| N=C(N)c1ccc(OCCCCCOc2ccc(C(=N)N)cc2)cc1 [PENTAMIDINE] | 2.8 nM | 940 nM | – | 4 nM | 1.32 | 98 | – | – | – | – | – |
| O=C(OCCCCCCCCCCCCCCCCBr)c1ccc(O)cc1O | 45700 nM | 49000 nM | > 100000 nM | – | – | 1.07 | > 400 µM | Non-Toxic | > 9 | – | – |
| O=C(OCCCCCCCCCCCCCCCC[n+]1cccc2ccccc21)c1ccc(O)cc1O.[Br-] | 140 nM | 140 nM | 3000 nM | 89 nM | 0.62 | 1.01 | – | – | – | – | CC50 at 30 h [7]: 345 µM; selectivity ratio [8]: 2410; selectivity ratio [9]: 115; IC50 [6]: > 5 µM |
| O=C(NO)c1ccc(OCCCCCCCC[P+](c2ccccc2)(c2ccccc2)c2ccccc2)cc1O.[Br-] | 400 nM | – | 27200 nM | – | – | – | > 400 µM | Non-Toxic | > 1000 | > 14.7 | – |
| O=C(OCCCCCCCCCCCCBr)c1ccc(O)cc1O | 14500 nM | 14900 nM | 52100 nM | – | – | 1.03 | > 400 µM | Non-Toxic | > 28 | > 7.7 | – |
| O=C(OCCCCCCCCCCCC[P+](c1ccccc1)(c1ccccc1)c1ccccc1)c1ccc(O)cc1O.[Br-] | 1.2 nM | 1.2 nM | 42 nM | 1.2 nM | 1.01 | 0.96 | 1.65 µM | Non-Toxic | 1330 | – | – |
| CC(C)[C@@H]1NC(=O)[C@H](C)OC(=O)[C@@H](C(C)C)NC(=O)[C@@H](C(C)C)OC(=O)[C@H](C(C)C)NC(=O)[C@H](C)OC(=O)[C@@H](C(C)C)NC(=O)[C@@H](C(C)C)OC(=O)[C@H](C(C)C)NC(=O)[C@H](C)OC(=O)[C@@H](C(C)C)NC(=O)[C@@H](C(C)C)OC1=O | – | – | – | – | – | – | – | – | – | – | Activity [24]: Active |
| BrCCCCCCCCCC[P+](c1ccccc1)(c1ccccc1)c1ccccc1.[Br-] | 1.8 nM | 1.2 nM | 950 nM | – | – | 0.7 | 6.01 µM | Non-Toxic | 3340 | 6.3 | inhibition [25]: inactive; inhibition [26]: inactive |
| O=C(OCCCCCCCCC[P+](c1ccccc1)(c1ccccc1)c1ccccc1)c1ccc(O)cc1O.[Br-] | 5.9 nM | 7.4 nM | 410 nM | 5 nM | 0.88 | 1.24 | 4.68 µM | Non-Toxic | 789 | 11.5 | – |
| O=C(OCCCCCCCCCCCC[n+]1cccc2ccccc21)c1ccc(O)cc1O.[Br-] | 330 nM | 347 nM | 7000 nM | 230 nM | 0.69 | 1.05 | – | – | – | – | CC50 at 30 h [7]: 202 µM; selectivity ratio [8]: 609; selectivity ratio [9]: 28.7; IC50 [6]: > 5 µM |
| O=C(OCCCCCCCC[P+](c1ccccc1)(c1ccccc1)c1ccccc1)c1ccc(O)cc1O.[Br-] | 73 nM | 68 nM | 4300 nM | 84 nM | 1.16 | 0.94 | 7.73 µM | Non-Toxic | 106 | 1.8 | – |
| O=C(OCCCCCCCCCCCCCC[n+]1cccc2ccccc21)c1ccc(O)cc1O.[Br-] | 100 nM | 125 nM | 3800 nM | 78 nM | 0.75 | 1.21 | – | – | – | – | CC50 at 30 h [7]: 172 µM; selectivity ratio [8]: 1660; selectivity ratio [9]: 45.3; Activity [18]: Dose-dependent effect; Activity [19]: Active; IC50 [6]: 1.36 µM |
| O=C(OCCCCCCCCCC[P+](c1ccccc1)(c1ccccc1)c1ccccc1)c1ccc(O)cc1O.[Br-] | 1.3 nM | 1.1 nM | 180 nM | 2 nM | 1.26 | 0.86 | 2.33 µM | Non-Toxic | 1770 | 13.2 | – |
